Reference: patent publication US6471974B1, “N-chlorosulfamate compositions having enhanced antimicrobial efficacy” (S.C. Johnson & Son, Inc., priority 1999, dated 2002)
“Also recorded” adds a separate entry of the source.

Assays:
[1] = tested on: Staphylococcus aureus (ATCC 25923); test: Sanitizer Test on glass slides, 5-minute contact time (parallels EPA Non-Food Contact Sanitizer Test DIS/TSS-10); type: cell-based; details: S. aureus, dopant to hypochlorite 0.20 to 1.0, 985 ppm TAC
Protocol: The test method used to evaluate antimicrobial efficacy was the Sanitizer Test described below.
(§1) Sanitizer Test: Glass slides measuring 18×36 mm were washed in a dishwasher, placed in glass petri dishes on 2 pieces of Whatman no. 2 filter paper and autoclaved. The slides were inoculated with a 10 μl sterile bacterial loop. The inoculum was spread over the upper surface of the slide being careful not to exceed the edges of the slide. The inoculum was a 24 hour culture having a concentration of approximately 10^9 organisms per ml. Following inoculation, the slides were incubated at 35° C. for 30±5 minutes to allow the slides to dry. The test product was then sprayed liberally onto the test surface (6 sprays/slide—approximately 6 ml of product) and the slides were allowed to stand for the desired contact time. The slides were removed from the petri dish using flamed forceps after exposure to the test product for the specified contact time and placed into test tubes containing 15.0 ml of the desired neutralizer for neutralization of the test product. Both 2× Letheen Broth (Tween 80 & Lecithin) and Dey/Engley neutralizing broths were separately utilized. Test bacteria was recovered by vortexing each test tube for 15 seconds. Serial dilutions were made using diluent. The pour plate technique using Tryptic Soy Agar was used to obtain plate counts. Parallel tests were run using a citrate-buffered (pH 5) solution of the dopant at a concentration equal to that in the doped test solutions or a 0.01% solution of Triton X-100 (isooctylphenoxy-polyethoxyethanol with 9-10 moles oxyethylene) in an identical manner to serve as controls. Blank parallel controls, using sterile, de-ionized water as the test product, were also evaluated.
A 5-minute contact time using-a glass slide test surface was employed.
(§2) The test products used are described below.

[2] = tested on: Klebsiella pneumoniae (ATCC 4352); test: Sanitizer Test on glass slides, 1-minute contact time; type: cell-based; details: K. pneumoniae, 100 ppm TAC
Protocol: as §1, §2

[3] = Long-term stability at 40° C., NaOCl by iodometric titration and pH; type: physicochemical; details: up to Day 58
Protocol: Preparation of a stock 3.0% stabilized hypochlorite solution (0.75 to 1.0 mole ratio of sulfamate to NaOCl, pH 4.9 citric acid buffer): Anhydrous citric acid (210.0 g), sulfamic acid (88.0 g) and sodium hydroxide (93.0 g) were dissolved in deionized water (1897.54 g). The reaction mixture was allowed to cool to room temperature (approximately 1 hour).
All stabilized hypochlorite-containing test formulas were prepared by further dilution of the 3.0% stabilized NaOCl stock solution. Where applicable, the appropriate amount of each dopant was added to a known volume of diluted stock solution. Solutions containing varying mole ratios of sulfamate to NaOCl (1.0 to 1.0 and 1.5 to 1.0) were prepared by adding solid sodium sulfamate, as required, to 1.0 liter portions of the diluted stock solution. For all “doped” formulas, the ratio of NaOCl to dopant was 1.0:0.20.
Long-term stability samples were stored in a 40° C. incubator. After cooling to room temperature (23° C.) the concentration of NaOCl was determined via iodometric titration. The experimentally determined concentration of NaOCl is expressed in units of molarity (M). The recorded pH of each formula is shown in parentheses.

Staphylococcus aureus = test: Sanitizer Test on glass slides, 1-minute contact time; type: cell-based; details: S. aureus, 500 and 200 ppm TAC
Protocol: as §1
However, a 1-minute contact time using a glass slide test surface was employed. Staphylococcus aureus was the test organism used. The test products that were used are described below.
Results are reported as a bacterial reduction (log reduction) of the formulation

Structure (SMILES)	antimicrobial enhancing effect of dopant added to base stabilized hypochlorite composition (in words) [1]	antimicrobial effectiveness of stabilized hypochlorite solutions containing the dopant (in words) [2]	effect of added dopant on long term stability of sulfamate-stabilized hypochlorite solutions (in words) [3]	antimicrobial effectiveness of stabilized hypochlorite solutions containing the dopant (in words) (Staphylococcus aureus)
NS(=O)(=O)c1ccc(C(=O)O)cc1 [4-carboxybenzenesulfonamide]	significantly enhances the antimicrobial activity			
CC1(C)NC(=O)NC1=O [5,5-dimethylhydantoin]	significantly enhances the antimicrobial activity	have antimicrobial effectiveness against K. pneumoniae	does not alter the long termn stability	lowest levels of enhanced antimicrobial efficacy
O=C1NC2NC(=O)NC2N1 (stereo not shown) [Glycoluril, glycoluril]	modest antimicrobial benefit			
NS(=O)(=O)c1ccccc1 [benzenesulfonamide]	significantly enhances the antimicrobial activity	have antimicrobial effectiveness against K. pneumoniae	does not alter the long termn stability	most effective
O=c1[nH]c(=O)[nH]c(=O)[nH]1 [cyanuric acid]	do not appear to have an antimicrobial enhancing effect			
Nc1nc(N)nc(N)n1 [melamine]	do not appear to have an antimicrobial enhancing effect			
O=C1CCC(=O)N1 [succinimide]	significantly enhances the antimicrobial activity	have antimicrobial effectiveness against K. pneumoniae		have antimicrobial effectiveness
Cc1ccc(S(N)(=O)=O)cc1 [toluenesulfonamide]	significantly enhances the antimicrobial activity; also recorded: antimicrobial enhancing ability			
